The results in this text go back to a melting point compilation (Tetko et al.; mined from patent text by program, amines drawn as free bases though some values may be those of a salt).

Bounds are passed on as bounds.

In turn, `Nc1nc(NCC(c2ccccc2)c2ccc(F)cc2)c2ncn(C3OC(CO)C(O)C3O)c2n1` (stereo not drawn) came in with a melting point of 127 to 130 °C.

Regarding `CCCCCCCCCCCCCCCCC12CCC3=C(CCc4cc(OC)ccc43)C1=CCC2=O` (stereo not drawn), the melting point fell in the range of 55 to 56 °C.

Regarding `COc1cc(CSc2nc3cnccc3[nH]2)cc(OC)c1`, the melting point lay in the range of 177 to 179 °C.

On to `NC(=O)N(O)CC=Cc1cccc(F)c1Sc1ccc(F)cc1`, for which the melting point lay in the range of 127 to 128 °C.

`COc1ccc(C=NC2CCN(c3cc4c(cc3F)c(=O)c(C(=O)O)cn4-c3ccc(F)cc3)C2)cc1` (stereo not drawn) registered a melting point of 270 to 271 °C.

In turn, `COc1ccccc1-c1nn(C(C)(C)C(=O)N(C)C)cc1C` showed a melting point of 146 to 148 °C.

Molecule `COc1ccc(C2Sc3cc(Cl)ccc3NC(=O)C2=O)cc1` (stereo not drawn) displayed a melting point of 168 to 169 °C.

For `COc1ccc2c(c1)C(=O)C1=NCCCN12`, the melting point is 152 °C.

For `COc1ccc(NC(=O)c2ccc(-c3ccc(C(=O)N4CCC4)cc3C)cc2)cc1N1CCN(C)CC1`, the melting point was 167 to 170 °C.

`CC(C)C1(C)Cc2cc(OCC#N)c(Cl)c(Cl)c2C1=O` (stereo not drawn) displayed a melting point of 133 °C.

In the case of `COCc1cc(OC)c(-c2ccc(C[C@H](NC(=O)c3c(F)cccc3Cl)C(=O)O)cc2)c(OC)c1`, the melting point was 170 to 175 °C.

`CC(=O)N(O)Cc1ccc2c(c1)OCc1ccccc1C2=O` had a melting point of 65 to 115 °C.

`Cn1c(=O)oc2cc3c(cc21)OCC31C(=O)N(C(c2ccccc2)c2ccccc2)c2ccccc21` (stereo not drawn) came in with a melting point of 228 to 229 °C.

Regarding `Nc1ccc2c3c1c(=O)c(C(=O)O)cn3CCC2`, the melting point is over 300 °C.

Turning to `NC(=O)[C@@H]1[C@H](Nc2c(Br)cnc3[nH]c(-c4ccc(N5CCOCC5)cc4)nc23)[C@H]2C=C[C@@H]1C2`, the melting point was in the range of 283 to 284 °C.

`OC(=S)CCCc1nn(-c2ccccc2)c2c1CCCC2`: the melting point fell in the range of 105 to 106 °C.

In turn, `CC(=O)OC1CC2CCC3C(CCC4(C)C3CC(N3CCCCC3)C4OC(C)=O)C2(C)CC1N1CCOCC1` (stereo not drawn) returned a melting point of 119 to 128 °C.

As for `N#Cc1ccc2c(c1)Sc1ccccc1CC2`, the melting point is 145 to 147 °C.

As to `CCC(=O)C(O)(Cc1ccc(C)cc1)c1ccc(N2CCOCC2)cc1` (stereo not drawn), the melting point was 160 °C.

`O=C(O)Cc1onc(O)c1Br`: the melting point amounted to 167 °C.

Turning to `OC(CNCCN(c1ccccc1)c1ccccc1)COc1ccccc1` (stereo not drawn), the melting point lay within 95 to 96 °C.

`O=C1c2cccc(-c3ccccc3)c2C2NCCN12` (stereo not drawn) showed a melting point of 155 to 157 °C.

`COc1cccc(CNc2nccc(-c3cc(N4CCN(CCCN(C)C)CC4)c4cc(OC)ccc4c3)n2)c1` registered a melting point of 70 to 75 °C.

`O=C(Nc1nnn[nH]1)c1c(C(F)(F)F)nc2c(C(F)(F)F)cccc2c1O`: the melting point was over 260 °C.

The molecule `Cn1c(=O)c(-c2ccc(Cl)cc2Cl)cc2c3cc(C=O)ccc3n(C)c21` gave a melting point of 284 °C.

The molecule `O=C(CC12CC3CC(CC(C3)C1)C2)Nc1ccc2[nH]ncc2c1` registered a melting point of 265 °C.

On to `Cc1cnc2ccc(N)cc2n1`, for which the melting point fell in the range of 170 to 173 °C.

Molecule `O=S(CCCCCl)Cc1ccc(-c2ccccc2)cc1` (stereo not drawn) came in with a melting point of 116 to 117 °C.

With `C=C(C)c1csc(SC)c1`, the melting point fell in the range of 71 to 73 °C.

Consider `CCCS(=O)(=O)c1cc(C(=O)NCC2CCCN2CC)c(OC)cc1N` (stereo not drawn), for which the melting point fell in the range of 105 to 106 °C.

As for `CCOC(=O)C1(NS(=O)(=O)c2ccc3c(Cl)cnc(Cl)c3c2)CCCC1`, the melting point was in the range of 127 to 129 °C.

The molecule `Oc1ccc(C2CCc3ccc(O)cc3O2)cc1` (stereo not drawn) returned a melting point of 110 to 111 °C.

`Cc1ccc2c(c1)cc(Cc1ccc(C(=O)O)cc1)n2S(=O)(=O)c1cccc(C(C)(C)C)c1` registered a melting point of 161 °C.

The molecule `CCCCCCCCCCCCCCC(=O)C(=O)N[C@H](C(=O)NCC(=O)O)C(C)C` came in with a melting point of 87 to 89 °C.

Molecule `COC(=O)COc1ccc(N)cc1` showed a melting point of 65 to 66.8 °C.

The molecule `COc1cc(OC)c(C(C)=O)cc1OC` yielded a melting point of 91 to 93 °C.

`O=C(O)c1ccc(NCc2cncc3ccccc23)cc1` displayed a melting point of 237 to 240 °C.

Molecule `C#CCc1c(C)nc2c(NCc3c(C)cccc3NC(=O)OC)cc(NC(C)=O)cn12` registered a melting point of 125 to 128 °C.

In the case of `O=[N+]([O-])c1ccc(Cl)c(O)c1`, the melting point lay within 115 to 117 °C.

As for `Cc1ccc(S(=O)(=O)Nc2cccc3cc(C(=O)Nc4ccccc4)[nH]c23)cc1`, the melting point was 247 to 248 °C.

With `O=C(c1ccc(-c2ccc(O)cc2)cc1)C1CC=CC1`, the melting point is 153 to 155 °C.

On to `CCCCc1nc2ccccn2c(=O)c1-c1ccc(N2CCN(C(=O)OC(C)(C)C)CC2)nc1`, for which the melting point is 126 to 128 °C.

On to `CC(C)N1CC(C(=O)c2ccc(Cc3ccc(F)cc3)s2)=C(O)C1=O`, for which the melting point is 138 to 139 °C.

With `CCCCc1c(C)c2ccc(OCCCN3CCC(NC(=O)c4ccccc4)CC3)cc2oc1=O`, the melting point was 170 to 171 °C.

For `COC(=O)CCn1cc(C2=C(c3cn(C)c4ccccc34)C(=O)NC2=O)c2ccccc21`, the melting point lay within 209 to 211 °C.

`COc1cc(CCC(=O)Nc2cccc(C(=O)O)c2)ccc1O` gave a melting point of 218 to 220 °C.

On to `O=C1OCC2CCC1(c1ccc(Cl)cc1Cl)O2` (stereo not drawn), for which the melting point lay within 136 to 137 °C.

`CCn1cnc2c(=O)[nH]c(N)nc21` came in with a melting point of over 300 °C.

The molecule `COCC(C)N(C)Cc1c(-c2ccc(NC(=O)NOC)cc2)sc2c1c(=O)n(-c1ccccc1)c(=O)n2Cc1c(F)cccc1F` (stereo not drawn) showed a melting point of 154 to 155 °C.

On to `CCn1c(=O)c2c(nc(/C=C/c3ccc(OC)c(O)c3)n2C)n(CC)c1=O`, for which the melting point is 204 to 206 °C.

`O=CCCC12CC(c3ccccc31)c1ccccc12` returned a melting point of 135 to 140 °C.

In turn, `O=C(Cn1ncc(-c2ccccc2)c1-c1ccccc1)NCCCO` displayed a melting point of 138 to 139 °C.

As to `O=C(Nc1cccnc1)N1CCN(c2cc(-c3cccc(F)c3F)ncn2)CC1`, the melting point was 179 to 180 °C.

`CCOC(=O)c1cc(Br)cc2c(=O)cc(-c3cccc(OCc4ncc5ccccc5n4)c3)oc12` showed a melting point of 246 °C.

For the molecule `Fc1ccc(-c2ccnc(Nc3ccc4c(c3)OCCO4)c2)cc1`, the melting point was 134 to 135 °C.

Consider `CCCCCC(CNC(=O)Nc1cc(C(N)=O)ccc1C(C)(C)C)c1ccc(OC)cc1OC` (stereo not drawn), for which the melting point fell in the range of 223 to 224 °C.

`CN1C(=O)c2ccccc2OC1(C)COc1ccc(N)cc1` (stereo not drawn): the melting point lay within 162 to 164 °C.

In turn, `Cn1nc(-c2ccccc2)c(OC(C)(C)C)c1-c1ccccc1` came in with a melting point of 106 to 108 °C.

In turn, `CS(=O)(=O)OCCCc1ccc(OCc2ccccc2)cc1` had a melting point of 74 to 75 °C.

`CC(=O)OCC1OC(n2cc(Cc3ccc(Br)cc3)c3c(Cl)cccc32)C(OC(C)=O)C(OC(C)=O)C1OC(C)=O` (stereo not drawn) gave a melting point of 223 to 225 °C.

In turn, `CC(C)S(=O)(=O)Oc1cn(C)c2cc(F)ccc2c1=O` returned a melting point of 130 to 133 °C.

`Cc1c(C)c2c(c(C)c1O)CCC(C)(C(=O)NCC1(c3ccc(-n4c(C)ccc4C)cc3)CCCC1)O2` (stereo not drawn) had a melting point of 90 to 94 °C.

Regarding `Cc1ccc2oc(OCC(=O)N(c3ccccc3)C(C)C)nc2c1`, the melting point is 108 °C.

For orientation: melting point means the temperature, or range, at which the solid turns liquid.
